Legend:
Test in all cases: relative viability (nuclei count vs DMSO), 5 days (fraction); higher = more cells survive
[1] = system: A-427
Outline: (§1)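 The day after seeding in 1536-well plates, lung cancer cell lines were treated by pin tool with a single drug, or with a fixed anchor-drug dose together with five library-drug doses (not always all listed) in √10 steps. After 5 days, a combined fix-and-stain solution (final 0.05% Triton X-100, 1% formaldehyde, 1 ug/ml Hoechst) was added. Nuclei counted on 4× images gave relative viability as treated counts over vehicle counts, reported as the median of duplicate plates.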

[2] = system: ABC-1
Outline: as §1

[3] = system: COR-L23
Outline: as §1

[4] = system: EMC-BAC-2
Outline: as §1

[5] = system: HARA
Outline: as §1

[6] = system: HOP-62
Outline: as §1

[7] = system: LK-2
Outline: as §1

[8] = system: LU99A
Outline: as §1

[9] = system: LXF-289
Outline: as §1

[10] = system: NCI-H1792
Outline: as §1

[11] = system: NCI-H1793
Outline: as §1

[12] = system: NCI-H1944
Outline: as §1

[13] = system: NCI-H1993
Outline: as §1

[14] = system: NCI-H2009
Outline: as §1

[15] = system: NCI-H2170
Outline: as §1

[16] = system: NCI-H2228
Outline: as §1

[17] = system: NCI-H3122
Outline: as §1

[18] = system: NCI-H596
Outline: as §1

[19] = system: NCI-H727
Outline: as §1

[20] = system: PC-3 [JPC-3]
Outline: as §1

[21] = system: SK-LU-1
Outline: as §1

[22] = system: SK-MES-1
Outline: as §1

[23] = system: SW 1573
Outline: as §1

[24] = system: SW 900
Outline: as §1

In the case of `C[C@@H]1CN(CC(=O)Nc2ccc3c(c2)Cc2cccc(-c4cc(=O)cc(N5CCOCC5)o4)c2S3)C[C@H](C)O1` + O=C(c1cc(Cc2n[nH]c(=O)c3ccccc23)ccc1F)N1CCN(C(=O)C2CC2)CC1 [Olaparib] (partner 8 µM), the relative viability ([1]; first compound 0.04 µM) is reported as 0.658, the relative viability ([1]; first compound 0.1265 µM) is reported as 0.734 and the relative viability ([1]; first compound 0.4 µM) is reported as 0.731. For the same molecule, the relative viability ([1]; first compound 4 µM) was 0.669, the relative viability ([2]; first compound 0.04 µM) was 0.729 and the relative viability ([2]; first compound 0.1265 µM) was 1.22. For the same molecule, the relative viability ([2]; first compound 0.4 µM) was 0.804, the relative viability ([2]; first compound 4 µM) was 1.08 and the relative viability ([3]; first compound 0.04 µM) was 0.39. The relative viability ([3]; first compound 0.1265 µM) was 0.329, the relative viability ([3]; first compound 0.4 µM) was 0.323 and the relative viability ([3]; first compound 4 µM) was 0.185. For the same molecule, the relative viability ([4]; first compound 0.04 µM) was 0.512, the relative viability ([4]; first compound 0.1265 µM) was 0.579 and the relative viability ([4]; first compound 0.4 µM) was 0.513. For the same molecule, the relative viability ([4]; first compound 4 µM) was 0.263, the relative viability ([5]; first compound 0.04 µM) was 0.932 and the relative viability ([5]; first compound 0.1265 µM) was 0.779. The relative viability ([5]; first compound 0.4 µM) was 0.87, the relative viability ([5]; first compound 4 µM) was 0.22 and the relative viability ([6]; first compound 0.04 µM) was 0.283. It also gave a relative viability ([6]; first compound 0.1265 µM) of 0.442, a relative viability ([6]; first compound 0.4 µM) of 0.452 and a relative viability ([6]; first compound 4 µM) of 0.0812. For the same molecule, the relative viability ([7]; first compound 0.04 µM) was 0.852, the relative viability ([7]; first compound 0.1265 µM) was 0.724 and the relative viability ([7]; first compound 0.4 µM) was 0.575. The relative viability ([7]; first compound 4 µM) was 0.321, the relative viability ([8]; first compound 0.04 µM) was 0.316 and the relative viability ([8]; first compound 0.1265 µM) was 0.282. The relative viability ([8]; first compound 0.4 µM) was 0.259, the relative viability ([8]; first compound 4 µM) was 0.246 and the relative viability ([9]; first compound 0.04 µM) was 0.998. The relative viability ([9]; first compound 0.1265 µM) was 1.1, the relative viability ([9]; first compound 0.4 µM) was 1.21 and the relative viability ([9]; first compound 4 µM) was 1.05. For the same molecule, the relative viability ([10]; first compound 0.04 µM) was 0.715, the relative viability ([10]; first compound 0.1265 µM) was 0.407 and the relative viability ([10]; first compound 0.4 µM) was 0.315. It also gave a relative viability ([10]; first compound 4 µM) of 0.102, a relative viability ([11]; first compound 0.04 µM) of 1.01 and a relative viability ([11]; first compound 0.1265 µM) of 0.784. The relative viability ([11]; first compound 0.4 µM) was 0.86, the relative viability ([11]; first compound 4 µM) was 0.255 and the relative viability ([12]; first compound 0.1265 µM) was 0.371. For the same molecule, the relative viability ([12]; first compound 0.4 µM) was 0.386, the relative viability ([12]; first compound 4 µM) was 0.321 and the relative viability ([13]; first compound 0.04 µM) was 1.06. For the same molecule, the relative viability ([13]; first compound 0.1265 µM) was 0.963, the relative viability ([13]; first compound 0.4 µM) was 0.942 and the relative viability ([13]; first compound 4 µM) was 0.81. For the same molecule, the relative viability ([14]; first compound 0.04 µM) was 0.71, the relative viability ([14]; first compound 0.1265 µM) was 0.691 and the relative viability ([14]; first compound 0.4 µM) was 0.649. For the same molecule, the relative viability ([14]; first compound 4 µM) was 0.274, the relative viability ([15]; first compound 0.04 µM) was 0.648 and the relative viability ([15]; first compound 0.1265 µM) was 0.609. It also gave a relative viability ([15]; first compound 0.4 µM) of 0.578, a relative viability ([15]; first compound 4 µM) of 0.523 and a relative viability ([16]; first compound 0.04 µM) of 0.781. For the same molecule, the relative viability ([16]; first compound 0.1265 µM) was 0.505, the relative viability ([16]; first compound 0.4 µM) was 0.571 and the relative viability ([16]; first compound 4 µM) was 0.174. The relative viability ([17]; first compound 0.04 µM) was 0.607, the relative viability ([17]; first compound 0.1265 µM) was 0.591 and the relative viability ([17]; first compound 0.4 µM) was 0.645. It also gave a relative viability ([17]; first compound 4 µM) of 0.518, a relative viability ([18]; first compound 0.04 µM) of 0.601 and a relative viability ([18]; first compound 0.1265 µM) of 0.624. It also gave a relative viability ([18]; first compound 0.4 µM) of 0.641, a relative viability ([18]; first compound 4 µM) of 0.486 and a relative viability ([19]; first compound 0.04 µM) of 0.831. For the same molecule, the relative viability ([19]; first compound 0.1265 µM) was 0.77, the relative viability ([19]; first compound 0.4 µM) was 0.835 and the relative viability ([19]; first compound 4 µM) was 0.64. It also gave a relative viability ([20]; first compound 0.04 µM) of 1.17, a relative viability ([20]; first compound 0.1265 µM) of 1.08 and a relative viability ([20]; first compound 0.4 µM) of 1.16. For the same molecule, the relative viability ([20]; first compound 4 µM) was 0.608, the relative viability ([21]; first compound 0.04 µM) was 0.566 and the relative viability ([21]; first compound 0.1265 µM) was 0.667. For the same molecule, the relative viability ([21]; first compound 0.4 µM) was 0.575, the relative viability ([21]; first compound 4 µM) was 0.219 and the relative viability ([22]; first compound 0.04 µM) was 0.78. It also gave a relative viability ([22]; first compound 0.1265 µM) of 0.721, a relative viability ([22]; first compound 0.4 µM) of 0.686 and a relative viability ([22]; first compound 4 µM) of 0.252. The relative viability ([23]; first compound 0.04 µM) was 0.553, the relative viability ([23]; first compound 0.1265 µM) was 0.546 and the relative viability ([23]; first compound 0.4 µM) was 0.495. The relative viability ([23]; first compound 4 µM) was 0.21, the relative viability ([24]; first compound 0.04 µM) was 0.869 and the relative viability ([24]; first compound 0.1265 µM) was 0.993. The relative viability ([24]; first compound 0.4 µM) was 0.815 and the relative viability ([24]; first compound 4 µM) was 0.445.
